Among the data in ChEMBL document CHEMBL1765059, “Bunodosine 391: an analgesic acylamino acid from the venom of the sea anemone Bunodosoma cangicum” (J Nat Prod, 2011) are Activity and inhibition values, retold here.

Common to all, as to assay type: functional, organism-based
The species named for assay [1] is Rattus norvegicus. As to the kind of experiment: Antinociceptive activity against carrageenan-induced hyperalgesia in Wistar rat assessed as increase in pain threshold at 105 nm/paw, i.pl in presence of 1 ug/paw of opioid antagonist naloxone treated 30 mins before compound challenge.
Assay [2] has as its system Rattus norvegicus. As to the kind of experiment: Antiinflammatory activity against carrageenan-induced edema in Wistar rat assessed as paw thickness at 105 nm/paw i.pl administered before 30 mins of carrageenan challenge. A general note: The carrageenan paw model is a standard test of acute inflammation.
In assay [3] the test system is Rattus norvegicus. As to the kind of experiment: Antinociceptive activity against carrageenan-induced hyperalgesia in Wistar rat assessed as increase in pain threshold at 105 nm/paw, i.pl administered after 150 mins of carrageenan challenge by paw pressure test.
The subject of assay [4] is Rattus norvegicus. As to the kind of experiment: Antinociceptive activity in i.pl dosed Wistar rat assessed as increase in pain threshold by paw pressure test.
Assay [5] deals with Rattus norvegicus. As to the kind of experiment: Antinociceptive activity against carrageenan-induced hyperalgesia in Wistar rat assessed as increase in pain threshold at 105 nm/paw, i.pl in presence of 5 mg/kg of nonselective serotonin antagonist methysergide treated 30 mins before compound challenge. Set-up: dose 5 mg/kg.

Activity calls are given as the source filed them.

In the case of `O=C(Cc1c[nH]c2cc(Br)ccc12)N[C@@H](Cc1c[nH]cn1)C(=O)O`, in the assay listed under Rattus norvegicus [1], the outcome was Active. The inhibition result in the assay with Rattus norvegicus [2] was “inactive”. In the assay with Rattus norvegicus [3], the inhibition result was “Active”. In the assay with Rattus norvegicus [4], the Activity entry was “Dose-dependent effect”. For the same molecule, the result with Rattus norvegicus [5] was inactive.
